Reference: patent publication US20230174507A1, “IMIDAZOLE 3-OXIDE DERIVATIVE BASED ACSS2 INHIBITORS AND METHODS OF USE THEREOF” (METABOMED LTD., priority 2020, published 2023)

What was measured:
human ACSS1 protein = biological target: T1, human ACSS1 protein (Homo sapiens, UniProt Q9NUB1); test: ACSS1 cell-free activity assay (pyrophosphatase-coupled, Biomol green); type: biochemical; details: 5 nM human ACSS1, 30 minutes at room temperature, absorbance at 620 nm; for IC50: read-out: ACSS1 Biochemical IC50
T1 construct: purchased MyBioSource
T1 sequence (Q9NUB1 38-689): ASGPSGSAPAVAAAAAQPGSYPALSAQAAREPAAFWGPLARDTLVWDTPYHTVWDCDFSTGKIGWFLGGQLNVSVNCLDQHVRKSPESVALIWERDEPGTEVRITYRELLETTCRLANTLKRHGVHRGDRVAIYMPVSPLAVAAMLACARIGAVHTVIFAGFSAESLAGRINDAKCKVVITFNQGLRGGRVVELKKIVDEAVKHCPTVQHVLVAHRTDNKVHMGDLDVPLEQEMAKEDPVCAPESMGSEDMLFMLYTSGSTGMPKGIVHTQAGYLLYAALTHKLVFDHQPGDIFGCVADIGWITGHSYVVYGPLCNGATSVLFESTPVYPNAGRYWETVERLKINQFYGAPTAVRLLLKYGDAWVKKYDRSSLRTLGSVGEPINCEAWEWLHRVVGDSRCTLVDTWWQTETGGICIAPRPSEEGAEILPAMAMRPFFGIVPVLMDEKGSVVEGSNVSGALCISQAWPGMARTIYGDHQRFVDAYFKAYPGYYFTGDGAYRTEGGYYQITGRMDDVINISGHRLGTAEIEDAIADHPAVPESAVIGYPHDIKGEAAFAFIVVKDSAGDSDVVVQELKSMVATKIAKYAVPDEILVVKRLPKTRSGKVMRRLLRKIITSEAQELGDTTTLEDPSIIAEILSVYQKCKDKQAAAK
Summary of the method: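 5 nM human ACSS1 incubated 30 min at RT with compound in pH 7.5 Hepes buffer with 15 μM CoA, 5 mM acetate, 300 μM ATP, 2 mM MgCl2 and pyrophosphatase. Released phosphate detected with Biomol Green (30 min), absorbance 620 nm. IC50 from constrained non-linear regression.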

[1] = biological target: T2, ACSS2 in MDA-MB-468 cells (Homo sapiens, UniProt Q9NR19); test: Cellular fatty-acid IC50: 13C-acetate incorporation into fatty acids (palmitate), LC-MS; type: cell-based; details: hypoxic conditions (1% O2), 75% charcoal stripped serum, 5 hours, 13C-acetate into palmitate, read-out: Cellular Fatty-acid IC50 High Serum MDA468
T2 construct: endogenous in cells; host or cells: MDA-MB-468 cells, hypoxia (1% O2)
T2 sequence (Q9NR19 whole entry): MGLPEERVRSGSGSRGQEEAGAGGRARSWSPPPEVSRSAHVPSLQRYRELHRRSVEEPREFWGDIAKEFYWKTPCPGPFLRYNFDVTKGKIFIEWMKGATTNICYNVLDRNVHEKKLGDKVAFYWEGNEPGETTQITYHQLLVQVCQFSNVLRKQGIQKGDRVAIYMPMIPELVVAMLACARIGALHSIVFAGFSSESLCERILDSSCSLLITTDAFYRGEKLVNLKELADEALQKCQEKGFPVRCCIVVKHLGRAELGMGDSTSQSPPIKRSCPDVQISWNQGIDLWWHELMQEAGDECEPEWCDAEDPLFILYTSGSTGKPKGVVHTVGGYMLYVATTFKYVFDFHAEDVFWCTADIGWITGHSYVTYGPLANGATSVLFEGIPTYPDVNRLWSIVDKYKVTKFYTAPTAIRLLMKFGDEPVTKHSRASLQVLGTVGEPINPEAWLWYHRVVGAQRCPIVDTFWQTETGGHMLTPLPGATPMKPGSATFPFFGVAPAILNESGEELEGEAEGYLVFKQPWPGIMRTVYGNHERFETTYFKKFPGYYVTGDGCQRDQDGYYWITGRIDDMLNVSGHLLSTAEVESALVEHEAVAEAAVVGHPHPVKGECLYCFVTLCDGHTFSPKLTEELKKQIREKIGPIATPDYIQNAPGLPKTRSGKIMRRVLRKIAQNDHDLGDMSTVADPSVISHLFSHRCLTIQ
Summary of the method: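 MDA-MB-468 cells under hypoxia (1% O2) treated 5 h with compound (0.000512-1000 nM) in medium with 75% charcoal-stripped serum and 0.5 mM 13C-acetate. 13C-palmitate quantified by LC-MS (negative ion, RSIM). IC50 from inhibition versus no-compound control, background-subtracted, constrained 0–100% nonlinear fit.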

human ACSS2 protein = biological target: T3, human ACSS2 protein (Homo sapiens, UniProt Q9NR19); test: ACSS2 cell-free activity assay (pyrophosphatase-coupled, Biomol green); details: 10 nM human ACSS2, 90 minutes at 37 C, absorbance at 620 nm; read-out: ACSS2 Biochemical IC50
T3 construct: purchased OriGene Technologies, Inc
T3 sequence (Q9NR19 whole entry): as above
Summary of the method: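 10 nM human ACSS2 incubated 90 min at 37 C with compound, 300 μM ATP, 10 μM CoA, 5 mM NaAc in pH 7.5 Hepes buffer with 0.5 U/ml pyrophosphatase. Released phosphate detected with Biomol Green at 620 nm; IC50 by non-linear regression constrained to 0% and 100%.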

Row | SMILES | IC50 (human ACSS1 protein) | IC50 [1] | IC50 (human ACSS2 protein) | ACSS1 Biochemical IC50 (nM) (human ACSS1 protein)
1 | CCC(F)(F)c1cccc(NC(=O)c2c(C)[nH]c(-c3cccc(-c4nccnc4C)c3)[n+]2[O-])c1 [Compound 110, 4-((3-(1,1-difluoropropyl)phenyl)carbamoyl)-5-methyl-2-(3-(3-methylpyrazin-2-yl)phenyl)-1H-imidazole 3-oxide] | > 30 nM | < 20 nM | < 1 nM | 
2 | CNC(=O)c1cccc(NC(=O)c2c(C)[nH]c(-c3cccc(-c4c(C)cccc4C)c3)[n+]2[O-])c1 [Compound 176, 2-(2′,6′-dimethyl-[1,1′-biphenyl]-3-yl)-5-methyl-4-((3-(methylcarbamoyl)phenyl)carbamoyl)-1H-imidazole 3-oxide] | > 30 nM | < 20 nM | < 1 nM | 
3 | CCC(F)(F)c1cccc(NC(=O)c2c(C)[nH]c(-c3cc(CCN(C)C)c(OC)c(-c4c(C)cccc4C)c3)[n+]2[O-])c1 [Compound 169, 4-((3-(1,1-difluoropropyl)phenyl)carbamoyl)-2-(5-(2-(dimethylamino)ethyl)-6-methoxy-2′,6′-dimethyl-[1,1′-biphenyl]-3-yl)-5-methyl-1H-imidazole 3-oxide] |  | < 20 nM | < 1 nM | Inactive
4 | CNC(=O)c1cccc(NC(=O)c2c(C)[nH]c(-c3cc(NC)cc(-c4c(C)cccc4C)c3)[n+]2[O-])c1 [Compound 181, 2-(2′,6′-dimethyl-5-(methylamino)-[1,1′-biphenyl]-3-yl)-5-methyl-4-((3-(methylcarbamoyl)phenyl)carbamoyl)-1H-imidazole 3-oxide] | > 30 nM | < 20 nM | < 1 nM | 
5 | CC(=O)c1cc(-c2c(C)cccc2C)cc(-c2[nH]c(C)c(C(=O)Nc3cccc(C(F)(F)C4CC4)c3)[n+]2[O-])c1 [Compound 142, 2-(5-acetyl-2′,6′-dimethyl-[1,1′-biphenyl]-3-yl)-4-((3-(cyclopropyldifluoromethyl)phenyl)carbamoyl)-5-methyl-1H-imidazole 3-oxide] |  | > 50 nM | < 1 nM | Inactive
6 | COc1cc(F)c(-c2[nH]c(C)c(C(=O)Nc3cccc(C(F)(F)F)c3)[n+]2[O-])cc1-c1c(F)cccc1F [Compound 207, 5-methyl-2-(2′,4,6′-trifluoro-6-methoxy-[1,1′-biphenyl]-3-yl)-4-((3-(trifluoromethyl)phenyl)carbamoyl)-1H-imidazole 3-oxide] |  | > 50 nM | < 1 nM | Inactive
7 | CCC(F)(F)c1cccc(NC(=O)c2c(C)[nH]c(-c3ccc(Cl)c(-c4c(C)cccc4C)c3)[n+]2[O-])c1 [Compound 108, 2-(6-chloro-2′,6′-dimethyl-[1,1′-biphenyl]-3-yl)-4-((3-(1,1-difluoropropyl)phenyl)carbamoyl)-5-methyl-1H-imidazole 3-oxide] |  | 20 to 50 nM | < 1 nM | Inactive
8 | Cc1cccc(C)c1-c1cc(-c2[nH]c(C)c(C(=O)Nc3cccc(C(F)(F)F)c3)[n+]2[O-])ccc1F [Compound 203, 2-(6-fluoro-2′,6′-dimethyl-[1,1′-biphenyl]-3-yl)-5-methyl-4-((3-(trifluoromethyl)phenyl)carbamoyl)-1H-imidazole 3-oxide] |  | > 50 nM | < 1 nM | Inactive
9 | Cc1[nH]c(-c2ccc(OCCCN3CCCC3)cc2)[n+]([O-])c1C(=O)Nc1cccc(C(F)(F)C2CC2)c1 [Compound 174, 4-((3-(cyclopropyldifluoromethyl)phenyl)carbamoyl)-5-methyl-2-(4-(3-(pyrrolidin-1-yl)propoxy)phenyl)-1H-imidazole 3-oxide] |  | > 50 nM | 1 to 30 nM | Inactive
10 | COc1ccc(-c2[nH]c(C)c(C(=O)Nc3cccc(C(N)=O)c3)[n+]2[O-])cc1-c1c(C)cccc1C [Compound 172, 4-((3-carbamoylphenyl)carbamoyl)-2-(6-methoxy-2′,6′-dimethyl-[1,1′-biphenyl]-3-yl)-5-methyl-1H-imidazole 3-oxide] |  | < 20 nM | < 1 nM | Inactive
